This is an account of results in US8592374B2, “Neurotrophic peptides” (Research Foundation for Mental Hygiene, Inc., priority 2007, dated 2013).

For data set [1], the system named is normal adult mice. Put plainly: Open field, time in the centre of the arena (anxiety). It is filed as in vivo. To be noted: 25 nmol/day, first five minutes of familiarization session. The protocol:
(§1) For the compound treatment, mice (8 animals/group) received subcutaneous implants of extended release depot pellets containing P21 or P22 at 25 nmol/day for 35 days of continuous dosing (Innovative Research of America, USA). For the control group (8 animals), pellets consisted of the carrier polymer only. Mice were anesthetized with 2.5% Avertin (0.38 ml for a 25 g animal). Under sterile conditions, pellets were implanted subcutaneously along the anterolateral aspect of the right shoulder with a precision trochar (Innovative Research of America). After recovery of anesthesia, animals were transferred to the animal colony. No complications associated with the implantation and treatment were observed. All procedures on animals were conducted in accordance with approved protocols from our Institutional Animal Welfare Committee.
The test used was an adaptation of the procedure previously described by Sargolini and collaborators (Sargolini, F., et al. Behav Brain Res 138 (2003):153-63). The testing apparatus was a classic open field (i.e. a PVC square arena, 50×50 cm, with walls 40 cm high). The open field was placed in a part of the room separated from the experimentator with a black opaque curtain. […] Object discrimination was calculated as follows: OD=(time spent close to new object)/(time spent close to new object)+(time spent close to old object)×100

Data set [2] is described as follows: General examination (physical state, body weight, exploratory activity, swim speed, floating). To be noted: 25 nmol/day for 35 days. Type of data set: in vivo, mice. Here is the method:
All in vivo studies for characterization of compounds (stereology and behavioral analysis) were performed on 8-10-month-old female retired breeders of C57Bl6 background. Animals were acclimatized for at least 3 weeks to exclude occasional pregnant mice from the studies. Mice were group-housed (3 animals per cage) with a 12:12 hours light/dark cycle and with free access to food and water.
as §1
The physical state and condition of animals were carefully monitored throughout the treatment by evaluating grooming, physical state and clasping reflex. Body weight was also recorded.
The test used was an adaptation of the procedure previously described by Sargolini and collaborators (Sargolini, F., et al. Behav Brain Res 138 (2003):153-63). The testing apparatus was a classic open field (i.e. a PVC square arena, 50×50 cm, with walls 40 cm high). The open field was placed in a part of the room separated from the experimentator with a black opaque curtain. The open field was surmounted by a video camera connected to a computer. Three objects were employed in this task. The general procedure consisted of three different phases: a familiarization phase (1 session of 20 min), a sample phase, and a test phase. On the first days, mice were individually submitted to the familiarization session during which they were introduced in the empty arena in order to become familiar with the apparatus. This familiarization session allowed to record a baseline level of locomotor activity (measuring the distance covered in the open field) and of anxiety (measuring the time the animals spent in the centre of the arena during the first five minutes). On the second day each mouse was first submitted to the sample phase (session 1, ten minutes) for which two identical objects were placed in a symmetric position from the centre of the arena. After a 15 minute delay during which the mouse returned to its home cage, it was reintroduced in the arena to perform the test phase (session 2, 10 min). The mouse was then exposed to two objects: a familiar object (previously presented during the sample phase) and a new object, placed at the same location as during the sample phase. Data collection was performed using a video tracking system (Smart version 2.0.14 software, Pan Lab/San Diego Instruments). Object discrimination was calculated as follows: OD=(time spent close to new object)/(time spent close to new object)+(time spent close to old object)×100

Assay in data set [3]: as above
It is filed as in vivo, mice. To be noted: 25 nmol/day for 35 days. The source holds these as a separate data set.

In data set [4] the test system is normal adult mice. Put plainly: One-trial object recognition test. It is filed as in vivo. To be noted: 25 nmol/day, test phase after 15 minute delay. The protocol:
as §1
In the one-trial object recognition task, animals are exposed to two different objects which they have to identify as novel or familiar based on the memory of an earlier experience with one of the two objects they encountered in the same open field. The familiar object is explored shorter than the novel encountered one because the representation of the former is still available in memory. The one-trial object recognition task tests some aspects of episodic memory but is limited to memory of an object (what), the location of an object (where), and the context in which it was encountered (which). However, the temporal dimension of the episode remains inaccessible to the experimentator, and because of this reason this task in animals is considered a test of short term memory.
The test used was an adaptation of the procedure previously described by Sargolini and collaborators (Sargolini, F., et al. Behav Brain Res 138 (2003):153-63). The testing apparatus was a classic open field (i.e. a PVC square arena, 50×50 cm, with walls 40 cm high). […] Object discrimination was calculated as follows: OD=(time spent close to new object)/(time spent close to new object)+(time spent close to old object)×100

Data set [5] concerns adult hippocampal progenitors in the dentate gyrus. Put plainly: Neurogenesis in the DG (BrdU-positive and BrdU/NeuN-double-positive cells). To be noted: 25 nmol/day for 35 days. Type of data set: in vivo, mice. Here is the method:
as §1
To investigate neurogenesis, BrdU (Sigma, USA) was given as two daily i.p. injections (100 mg/kg/dose) for five days starting on day 2 of compounds treatment.
At the end of the behavioral experiment, animals were anesthetized with an overdose of sodium pentobarbital (120 mg/kg) and transcardially perfused with 0.1 M phosphate buffered saline (PBS). After perfusion, the brains were removed from the skull, the left hemisphere was immediately frozen for future biochemical analysis and the right hemisphere was immersion fixed in 4% paraformaldehyde in 0.1 M PBS for at least 24 hours at room temperature. Tissues were equilibrated and stored in 30% sucrose solution at 4° C. until sectioning. The brains were sectioned sagittaly on a freezing sliding microtome at 40 μm through the entire hippocampus and the sections were stored in glycol anti-freeze solution (Ethylene glycol, glycerol and 0.1 M PBS in 3:3:4 ratio) at −20° C. until further processing.
For double labeling of BrdU and NeuN, brain sections were pretreated with 2 M HCl at 37° C. for 30 min and neutralized with 0.1 M borate buffer (pH 8.5) for 10 minutes. […]
Neurogenesis in the dentate gyrus was evaluated by counting the number of BrdU-positive and BrdU/NeuN-double-positive cells in the dentate gyrus (DG). The number of positive cells was determined in every fifth section in a series of 40 μm sagittal sections throughout the DG using unbiased sterology. All BrdU-positive cells in the subgranular zone (SGZ) and granule cell layer (GCL) were counted using a fluorescent microscope (Nikon Eclipse 90i, Nikon Corporation, Japan). Double labeled cells were assessed by a confocal imaging system (D-Eclipse C1, Nikon Corporation). […] For each brain, at least 100 cells were counted based on coefficient of error determinations.

Data set [6] deals with normal adult mice. In words: Spatial reference memory task in the water maze. It is filed as in vivo. The protocol:
as §1
Spatial reference learning and memory were evaluated in the water maze using a procedure adapted from that previously described by Morris et al. (Morris, R. G., et al. Nature 297 (1982): 681-3). The test required that mice used a spatial navigational strategy based on a spatial representation of the environment to find a fixed submerged escape platform. The procedure was performed in a 180 cm diameter circular tank. The pool was filled with water (21±1° C.) made opaque by adding white non-toxic paint. Acquisition started with the escape platform (15 cm diameter submerged 1 cm below water surface) in the Northwest quadrant and each animal was given 90 s to find the platform. […] At the end of each trial, the mouse was left on the platform for 20 seconds, then dried and returned to its home cage until the next trial. Five such acquisition trials were given on each day for four consecutive days. A test for retention, or probe trial (PT), was given 24 hours later. During the probe trial the mouse was allowed to swim in the tank without the escape platform for 60 seconds. This was followed by second and third probe trials 15 and 30 days after the first probe trial.
The measures of learning were the time and distance covered to reach the escape platform. For the probe trial, the tank was divided into four imaginary quadrants and a small zone where the escape platform had been. The measure of retention was calculated as the ratio of time spent or distance covered in target quadrant over that in the three other quadrants.
Mouse behavior in the water maze was monitored by a Samsung Digital Camera (SDC 4304) mounted to the ceiling and tracked and timed by a SMART (Pan Lab/San Diego Instruments) version 2.0.14 software.

In data set [7] the target is T1, human CNTF receptor (Homo sapiens, UniProt P26992).
T1 sequence (P26992 23-342): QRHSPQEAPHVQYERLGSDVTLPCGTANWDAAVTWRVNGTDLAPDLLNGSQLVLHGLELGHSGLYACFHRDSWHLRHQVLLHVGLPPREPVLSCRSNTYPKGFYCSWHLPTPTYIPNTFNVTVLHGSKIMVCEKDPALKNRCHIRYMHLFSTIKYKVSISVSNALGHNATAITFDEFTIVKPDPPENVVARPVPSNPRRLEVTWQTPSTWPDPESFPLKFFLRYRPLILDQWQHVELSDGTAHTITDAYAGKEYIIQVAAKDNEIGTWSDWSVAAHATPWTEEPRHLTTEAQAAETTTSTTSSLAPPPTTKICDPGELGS
To be noted: cited from earlier work.

For data set [8], the system named is embryonic chick ciliary neurons. To be noted: embryonic chick ciliary neurons in culture; cited from earlier work.
The subject of data set [9] is AHPs. In words: Cell-based assay for differentiation of AHPs with CNTF (βIII-tubulin/DAPI). To be noted: 1 hr fixation. Here is the method: βIII-tubulin antigenicity is compromised by fixation, although longer fixation improves attachment to the plates. Therefore, plates with different coatings for their suitability to be used in differentiation assay using CNTF (0.1, 1, 10, 100 ng/ml) were tested. Coating matrices tested: • poly D-lysine • poly D-lysine/laminin • poly L-ornithine/laminin • polyethyleneimine • collagen I • fibronectin The best immunostaining for βIII-tubulin was with 10 min fixation. However, since less cells were lost with 1 hr fixation, the differentiation assay with CNTF was performed with 1 hr fixation. The best differentiation was achieved on polyethyleneimine coated plates using the ratio of βIII-tubulin immunostaining to DAPI nuclear staining (cell number) as % of control as a relative measure of differentiation.

For data set [10] the following is noted: cited from earlier work.

Entries after “also recorded” stand apart in the source; their conditions may differ. Peptide text beside a SMILES is read from it. * marks the point of attachment. Adamantane1carbonyl = O=C(C12CC3CC(CC(C3)C1)C2)*; X1 = NC(=O)C12CC3CC(CC(N*)(C3)C1)C2

Take `CC(C)C[C@H](NC(=O)CNC(=O)CNC(=O)[C@H](CC(=O)O)NC(=O)C12CC3CC(CC(C3)C1)C2)C(=O)NC12CC3CC(C1)CC(C(N)=O)(C3)C2` [Peptide P22, 1-AdCO-DGGL^AG-NH2] (Adamantane1carbonyl-DGGL-X1): the “level of anxiety (time in the center of the open field)” value in data set [1] is “spent more time in the center of the open field than control animals; also recorded: reduced anxiety level”. For the same molecule, the “exploratory behavior / exploratory activity” value in [2] (open field) is “no alteration; also recorded: did not induce any effect”. For the same molecule, in data set [2] (subcutaneous pellets), the body weight entry is “no alteration; also recorded: did not induce any effect” and the general physical state result is “no alteration”. The “floating behavior in the water maze task (sign of depression or locomotor impairment)” value in data set [3] is “no floating behavior was observed”. Moreover, the swim speed entry in data set [3] (water maze) is “no alteration; also recorded: did not induce any effect”. For the same molecule, in data set [4], the “time exploring the new object versus the familiar object” value is given as “did not preferentially explore the novel object”. Besides, in data set [5], the “BrdU positive cells in the DG (GCL and SGZ)” value is “No significant alteration in neurogenesis”; the “BrdU/NeuN positive cells in the DG (GCL)” value is on record as “No significant changes”. Moreover, the “effect in the probe trials” value in [6] (three probe trials) was “No statistically significant effect”. Further, in [6] (training day 2 to 4, compared to control group), the “escape latencies to reach the submerged platform (learning)” value was “significantly reduced; also recorded: increased performance in the learning of spatial memory task”.

B1: recombinant rat CNTF: recombinant rat ciliary neurotrophic factor (protein, UniProt P20294 1-200, looked up)
Ciliary neurotrophic factor: MAFAEQTPLTLHRRDLCSRSIWLARKIRSDLTALMESYVKHQGLNKNINLDSVDGVPVASTDRWSEMTEAERLQENLQAYRTFQGMLTKLLEDQRVHFTPTEGDFHQAIHTLMLQVSAFAYQLEELMVLLEQKIPENEADGMPATVGDGGLFEKKLWGLKVLQELSQWTVRSIHDLRVISSHQMGISALESHYGAKDKQM
As for B1, the “affinity for the human CNTF receptor relative to human CNTF” value in data set [7] is listed as “higher affinity”. Further, the “biological activity in supporting survival and neurite outgrowth, relative to recombinant human CNTF” value in data set [8] is “four times better”.

B2: CNTF: Ciliary neurotrophic factor, a survival factor for various neuronal cell types; 200 amino acid protein (protein, UniProt P26441 1-200, looked up)
chain: MAFTEHSPLTPHRRDLCSRSIWLARKIRSDLTALTESYVKHQGLNKNINLDSADGMPVASTDQWSELTEAERLQENLQAYRTFHVLLARLLEDQQVHFTPTEGDFHQAIHTLLLQVAAFAYQIEELMILLEYKIPRNEADGMPINVGDGGLFEKKLWGLKVLQELSQWTVRSIHDLRFISSHQTGIPARGSHYIANNKKM
modifications: full-length
notes: Ciliary neurotrophic factor, a survival factor for various neuronal cell types; 200 amino acid protein
Consider B2, for which the “βIII-tu/DAPI (% of Control) (100 ng/ml CNTF)” value in [9] (coating poly D-lysine) is 175 % of Control; in [9] (coating poly D-lysine/laminin), 240 % of Control; in [9] (coating poly L-ornithine/laminin) it was 330 % of Control; in data set [9] (coating poly ethyleneimine) it was 480 % of Control. In data set [10], the “side effects of administration in human clinical trials” value is “anorexia, skeletal muscle loss, hyperalgesia, cramps, and muscle pain”.
